The text below walks through data of US6340581B1, “Biological production of products from waste gases” (Bioengineering Resources, Inc., priority 1992, dated 2002).

Where two headings read alike, the source gives them in different places.

Data set [1] in a line: Acetic acid distribution coefficient study: solvents for recovering acetic acid from the permeate. It is filed as physicochemical.
A short description of data set [2]: Distribution coefficients of mixed solvents. The settings on record: oleyl alcohol 10 cc plus Cyc or TBP. It is filed as physicochemical.
The mark [3] stands for this setting: aqueous phase after contact with the solvent.

In the case of `CCCCOP(=O)(O)OCCCC` [Dibutyl phosphate], in data set [1], the “Acetic Acid Distribution Coefficients” value is reported as 0.18 and the “Equilibrium Aqueous Acetic Acid Concentration” value was determined as 4.615 g/L.

As to `CCCCCCCCCCCC` [Dodecane], the “Equilibrium Aqueous Acetic Acid Concentration” value in data set [1] (setting [3]) was found to be 4.654 g/L. In addition, the “Acetic Acid Distribution Coefficients” value in data set [1] (solvent vs aqueous phase) is listed as 0.13.

`CCCCCCCCCC` [Decane]: the “Equilibrium Aqueous Acetic Acid Concentration” value in data set [1] (setting [3]) was found to be 5.968 g/L. In addition, the “Acetic Acid Distribution Coefficients” value in data set [1] (solvent vs aqueous phase) came to 0.08.

In the case of `CCCCC(CC)CO` (centres unmarked) [2-ethyl-1-hexanol], the “Equilibrium Aqueous Acetic Acid Concentration” value in data set [1] (setting [3]) worked out at 3.308 g/L. Further, the “Acetic Acid Distribution Coefficients” value in data set [1] (solvent vs aqueous phase) is 0.77.

Consider `CCCCCCCCCCCCCCCC` [Hexadecane], for which the “Equilibrium Aqueous Acetic Acid Concentration” value in data set [1] (setting [3]) is recorded as 5.866 g/L. The “Acetic Acid Distribution Coefficients” value in data set [1] (solvent vs aqueous phase) turned out to be 1.13.

`ClC(Cl)Cl` [Chloroform]: in data set [1], the “Acetic Acid Distribution Coefficients” value is reported as 0.09 and the “Equilibrium Aqueous Acetic Acid Concentration” value stood at 5.128 g/L.

On to `CCCCCC` [Hexane], for which, in data set [1], the “Acetic Acid Distribution Coefficients” value is given as 0.0 and the “Equilibrium Aqueous Acetic Acid Concentration” value is listed as 6.559 g/L.

For the molecule Dexyl alcohol, the “Equilibrium Aqueous Acetic Acid Concentration” value in data set [1] (setting [3]) was determined as 3.890 g/L. The “Acetic Acid Distribution Coefficients” value in data set [1] (solvent vs aqueous phase) turned out to be 0.42.

For `CCCCCCCC/C=C\CCCCCCCCO` [Oleyl alcohol], the “Equilibrium Aqueous Acetic Acid Concentration” value in data set [1] (setting [3]) is 5.114 g/L. Besides, the “Acetic Acid Distribution Coefficients” value in data set [1] (solvent vs aqueous phase) was 0.28. Moreover, the “Distribution Coefficients” value in data set [2] is on record as 0.17.

In the case of `CCCCCCCCCCCCOC(C)=O` [Dodecyl acetate], in data set [1] (setting [3]), the “Equilibrium Aqueous Acetic Acid Concentration” value is 5.787 g/L. Besides, the “Acetic Acid Distribution Coefficients” value in data set [1] (solvent vs aqueous phase) came to 0.15.

Regarding `O=C1CCCCC1` [Cyclohexanone], in data set [1] (setting [3]), the “Equilibrium Aqueous Acetic Acid Concentration” value was determined as 2.702 g/L. In data set [1] (solvent vs aqueous phase), the “Acetic Acid Distribution Coefficients” value is listed as 1.66.

As for `CCCCCCCCN(CCCCCCCC)CCCCCCCC` [Trioctylamine], the “Equilibrium Aqueous Acetic Acid Concentration” value in data set [1] (setting [3]) worked out at 3.785 g/L. Further, the “Acetic Acid Distribution Coefficients” value in data set [1] (solvent vs aqueous phase) was determined as 0.31.

`CCCCCCCCO` [Octanol]: the “Equilibrium Aqueous Acetic Acid Concentration” value in data set [1] (setting [3]) is recorded as 4.358 g/L. For the same molecule, the “Acetic Acid Distribution Coefficients” value in data set [1] (solvent vs aqueous phase) is listed as 0.45.

On to `CC1CCCC(O)C1` (centres unmarked) [3-methylcyclohexanol], for which, in data set [1] (setting [3]), the “Equilibrium Aqueous Acetic Acid Concentration” value is on record as 2.110 g/L. For the same molecule, the “Acetic Acid Distribution Coefficients” value in data set [1] (solvent vs aqueous phase) stood at 1.26.

As to `CCCCCCCCCCCO` [Undecyl alcohol], the “Equilibrium Aqueous Acetic Acid Concentration” value in data set [1] (setting [3]) is reported as 4.528 g/L. In addition, the “Acetic Acid Distribution Coefficients” value in data set [1] (solvent vs aqueous phase) is 0.40.

Turning to `CCOC(C)=O` [Ethyl acetate], the “Equilibrium Aqueous Acetic Acid Concentration” value in data set [1] (setting [3]) is reported as 4.550 g/L. Moreover, the “Acetic Acid Distribution Coefficients” value in data set [1] (solvent vs aqueous phase) is given as 0.41.

For `CCCC(=O)OCC` [Ethyl butyrate], in data set [1] (setting [3]), the “Equilibrium Aqueous Acetic Acid Concentration” value is given as 4.665 g/L. Besides, the “Acetic Acid Distribution Coefficients” value in data set [1] (solvent vs aqueous phase) stood at 0.42.
